From patent US20060069132A1, “Azolecarboxamide herbicides” (priority 2004, published 2006)
Where two headings read alike, the source gives them in different places.

Key:
barnyardgrass [1] = experiment: Test B flooded paddy test; type: in vivo, Echinochloa crus-galli; settings: Echinochloa crus-galli, 336 h, 1000 g ai/ha, scale 0 to 100 (0 no effect, 100 complete control), read-out: Barnyardgrass plant response rating
Method in brief: (§1)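 Paddy species grown to the 2-leaf stage under flooding; blackgrass sprayed postemergence at 2–18 cm (1- to 4-leaf stage). Plants kept in a greenhouse for 13 to 15 days, then visually rated against controls on 0 (no effect) to 100 (complete control).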

[2] = test system: small flower umbrella sedge; experiment: Test B flooded paddy test; type: in vivo, Cyperus difformis; settings: Cyperus difformis, 336 h, 1000 g ai/ha, scale 0 to 100 (0 no effect, 100 complete control), read-out: Sedge, Umbrella plant response rating
Method in brief: as §1

rice = experiment: Test B flooded paddy test; type: in vivo, Oryza sativa; settings: Oryza sativa, 336 h, 1000 g ai/ha, scale 0 to 100 (0 no effect, 100 complete control), read-out: Rice plant response rating
Method in brief: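 After treating 2-leaf paddy plants or 2–18 cm postemergence plants (1 to 4 leaves) with formulated chemical, researchers kept them in a greenhouse for 13–15 days. Effects were judged visually versus controls: 0 indicates none, 100 total control.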

barnyardgrass [3] = experiment: Test B pre-/postemergence herbicide test; type: in vivo, Echinochloa crus-galli; settings: Echinochloa crus-galli, pre-emergence, 0 = no effect, 100 = complete control
Method in brief: (§2)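 Test chemicals in a non-phytotoxic solvent mixture with surfactant were applied preemergence to seeded species and postemergence to plants 2-18 cm tall (1- to 4-leaf stage); rice and barnyardgrass were also tested in a flooded paddy at the 2-leaf stage. Visual rating versus controls after 13-15 days in greenhouse, scale 0 (no effect) to 100 (complete control).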

morningglory = experiment: Test B pre-/postemergence herbicide test; type: in vivo, Ipomoea coccinea; settings: Ipomoea, 336 h; for pest or weed control at 125 g/ha: 125 g ai/ha; for pest or weed control at 500 g/ha: 500 g ai/ha
Method in brief: as §2

Surinam grass = experiment: Test B pre-/postemergence herbicide test; type: in vivo, Urochloa decumbens; settings: Urochloa decumbens; for pest or weed control at 125 g/ha: 125 g ai/ha; for pest or weed control at 500 g/ha: 500 g ai/ha
Method in brief: (§3)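 Flooded paddy rice and barnyardgrass were treated at the 2-leaf stage; upland plantings received compound either on sown seed or on 1- to 4-leaf seedlings. All were kept 13–15 days in a greenhouse and scored visually, 0–100, relative to untreated plants.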

cocklebur = experiment: Test B pre-/postemergence herbicide test; type: in vivo, Xanthium strumarium; settings: Xanthium strumarium; for pest or weed control at 125 g/ha: 125 g ai/ha; for pest or weed control at 500 g/ha: 500 g ai/ha
Method in brief: as §2

velvetleaf = experiment: Test B pre-/postemergence herbicide test; type: in vivo, Abutilon theophrasti; settings: Abutilon theophrasti, 336 h; for pest or weed control at 125 g/ha: 125 g ai/ha; for pest or weed control at 500 g/ha: 500 g ai/ha
Method in brief: as §3

ducksalad = experiment: Test B flooded paddy test; type: in vivo, Heteranthera limosa; settings: Heteranthera limosa, 336 h, 1000 g ai/ha, scale 0 to 100 (0 no effect, 100 complete control), read-out: Ducksalad plant response rating
Method in brief: as §1

lambsquarters = experiment: Test B pre-/postemergence herbicide test; type: in vivo, Chenopodium album; settings: Chenopodium album, 336 h; for pest or weed control at 125 g/ha: 125 g ai/ha; for pest or weed control at 500 g/ha: 500 g ai/ha
Method in brief: as §3

pigweed = experiment: Test B pre-/postemergence herbicide test; type: in vivo, Amaranthus retroflexus; settings: Amaranthus retroflexus, 336 h; for pest or weed control at 125 g/ha: 125 g ai/ha; for pest or weed control at 500 g/ha: 500 g ai/ha
Method in brief: as §3

large crabgrass = experiment: Test B pre-/postemergence herbicide test; type: in vivo, Digitaria sanguinalis; settings: Digitaria sanguinalis; for pest or weed control at 125 g/ha: 125 g ai/ha; for pest or weed control at 500 g/ha: 500 g ai/ha
Method in brief: as §3

giant foxtail = experiment: Test B pre-/postemergence herbicide test; type: in vivo, Setaria faberi; settings: Setaria faberi, 336 h; for pest or weed control at 125 g/ha: 125 g ai/ha; for pest or weed control at 500 g/ha: 500 g ai/ha
Method in brief: as §3

blackgrass = experiment: Test B postemergence herbicide test; type: in vivo, Alopecurus myosuroides; settings: Alopecurus myosuroides, post-emergence, 336 h, postemergence, visual rating, scale 0 (no effect) to 100 (complete control), read-out: Blackgrass plant response rating
Method in brief: as §1

wheat = experiment: Test B postemergence herbicide test; type: in vivo, Triticum aestivum; settings: Triticum aestivum, post-emergence, 336 h, postemergence, visual rating, scale 0 (no effect) to 100 (complete control), read-out: Wheat plant response rating
Method in brief: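 Read-out: visual comparison with controls, scored 0 to 100, where 100 means complete control and 0 no effect. Formulated chemicals were applied postemergence to plants 2–18 cm tall (1- to 4-leaf), or to flooded-paddy plants at the 2-leaf stage, then held 13 to 15 days under glass.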

[4] = post-emergence, postemergence, visual rating, scale 0 (no effect) to 100 (complete control), read-out: Morningglory plant response rating
[5] = post-emergence, postemergence, visual rating, scale 0 (no effect) to 100 (complete control), read-out: Surinam Grass plant response rating
[6] = post-emergence, postemergence, visual rating, scale 0 (no effect) to 100 (complete control), read-out: Cocklebur plant response rating
[7] = post-emergence, postemergence, visual rating, scale 0 (no effect) to 100 (complete control), read-out: Velvetleaf plant response rating
[8] = post-emergence, postemergence, visual rating, scale 0 (no effect) to 100 (complete control), read-out: Lambsquarters plant response rating
[9] = post-emergence, postemergence, visual rating, scale 0 (no effect) to 100 (complete control), read-out: Pigweed plant response rating
[10] = post-emergence, postemergence, visual rating, scale 0 (no effect) to 100 (complete control), read-out: Crabgrass, Large plant response rating
[11] = post-emergence, postemergence, visual rating, scale 0 (no effect) to 100 (complete control), read-out: Foxtail, Giant plant response rating

CCn1nc(C(C)(C)C)cc1C(=O)Nc1ccc(F)c(C(=O)N(C)C)c1 [Compound 236, N-[3-[(dimethylamino)carbonyl]-4-fluorophenyl]-3-(1,1-dimethylethyl)-1-ethyl-1H-pyrazole-5-carboxamide]
pest or weed control at 1000 g/ha (barnyardgrass [1]): 80% | pest or weed control at 1000 g/ha [2]: 80% | plant injury at 1000 g/ha (rice): 70% | pest or weed control at 125 g/ha (barnyardgrass [3]; 125 g ai/ha, read-out: Barnyardgrass plant response rating (0 to 100 scale)): 50% | pest or weed control at 500 g/ha (barnyardgrass [3]; 500 g ai/ha, visual rating, read-out: Plant response rating, Barnyardgrass): 90% | pest or weed control at 125 g/ha (morningglory; [4]): 10% | pest or weed control at 500 g/ha (morningglory; [4]): 60% | pest or weed control at 125 g/ha (morningglory; pre-emergence, 0 = no effect, 100 = complete control, read-out: Morningglory plant response rating (0 to 100 scale)): 0% | pest or weed control at 500 g/ha (morningglory; pre-emergence, visual rating, 0 = no effect, 100 = complete control, read-out: Plant response rating, Morningglory): 20% | pest or weed control at 125 g/ha (Surinam grass; [5]): 0% | pest or weed control at 500 g/ha (Surinam grass; [5]): 20% | pest or weed control at 125 g/ha (Surinam grass; pre-emergence, 0 = no effect, 100 = complete control, read-out: Surinam Grass plant response rating (0 to 100 scale)): 20% | pest or weed control at 500 g/ha (Surinam grass; pre-emergence, visual rating, 0 = no effect, 100 = complete control, read-out: Plant response rating, Surinam Grass): 60% | pest or weed control at 125 g/ha (cocklebur; [6]): 20% | pest or weed control at 500 g/ha (cocklebur; [6]): 40% | pest or weed control at 125 g/ha (cocklebur; pre-emergence, 0 = no effect, 100 = complete control, read-out: Cocklebur plant response rating (0 to 100 scale)): 0% | pest or weed control at 500 g/ha (cocklebur; pre-emergence, visual rating, 0 = no effect, 100 = complete control, read-out: Plant response rating, Cocklebur): 20% | pest or weed control at 125 g/ha (velvetleaf; [7]): 20% | pest or weed control at 500 g/ha (velvetleaf; [7]): 50% | pest or weed control at 125 g/ha (velvetleaf; pre-emergence, 0 = no effect, 100 = complete control, read-out: Velvetleaf plant response rating (0 to 100 scale)): 20% | pest or weed control at 500 g/ha (velvetleaf; pre-emergence, visual rating, 0 = no effect, 100 = complete control, read-out: Plant response rating, Velvetleaf): 80% | pest or weed control at 1000 g/ha (ducksalad): 90% | pest or weed control at 125 g/ha (lambsquarters; [8]): 60% | pest or weed control at 500 g/ha (lambsquarters; [8]): 70% | pest or weed control at 125 g/ha (lambsquarters; pre-emergence, 0 = no effect, 100 = complete control, read-out: Lambsquarters plant response rating (0 to 100 scale)): 50% | pest or weed control at 500 g/ha (lambsquarters; pre-emergence, visual rating, 0 = no effect, 100 = complete control, read-out: Plant response rating, Lambsquarters): 100% | pest or weed control at 125 g/ha (pigweed; [9]): 60% | pest or weed control at 500 g/ha (pigweed; [9]): 70% | pest or weed control at 125 g/ha (pigweed; pre-emergence, 0 = no effect, 100 = complete control, read-out: Pigweed plant response rating (0 to 100 scale)): 30% | pest or weed control at 500 g/ha (pigweed; pre-emergence, visual rating, 0 = no effect, 100 = complete control, read-out: Plant response rating, Pigweed): 90% | pest or weed control at 125 g/ha (large crabgrass; [10]): 0% | pest or weed control at 500 g/ha (large crabgrass; [10]): 20% | pest or weed control at 125 g/ha (large crabgrass; pre-emergence, 0 = no effect, 100 = complete control, read-out: Crabgrass, Large plant response rating (0 to 100 scale)): 30% | pest or weed control at 500 g/ha (large crabgrass; pre-emergence, visual rating, 0 = no effect, 100 = complete control, read-out: Plant response rating, Crabgrass, Large): 70% | pest or weed control at 125 g/ha (giant foxtail; [11]): 10% | pest or weed control at 500 g/ha (giant foxtail; [11]): 40% | pest or weed control at 125 g/ha (giant foxtail; pre-emergence, 0 = no effect, 100 = complete control, read-out: Foxtail, Giant plant response rating (0 to 100 scale)): 10% | pest or weed control at 500 g/ha (giant foxtail; pre-emergence, visual rating, 0 = no effect, 100 = complete control, read-out: Plant response rating, Foxtail, Giant): 50% | pest or weed control at 125 g/ha (blackgrass; 125 g ai/ha): 0% | pest or weed control at 500 g/ha (blackgrass; 500 g ai/ha): 10% | plant injury at 125 g/ha (wheat; 125 g ai/ha): 10% | plant injury at 500 g/ha (wheat; 500 g ai/ha): 20%
